Test results taken from patent US20220402935A1, “HETEROCYCLIC COMPOUND” (FIMECS, INC., priority 2019, published 2022).
Where a name gives a salt, the structure may show the parent alone.

Tests used:
IRAK-M = molecular target: T1, IRAK-M (Homo sapiens, UniProt Q9Y616); experiment: IRAK-M binding inhibitory activity (KINOMEscan active site-dependent competitive assay); parameters: purchased Eurofins Discover X; details: for remaining binding at 1 µM: concentration of the test compound 1 μM, first symbol of cell, read-out: IRAK-M binding inhibition activity % Ctrl; for IC50: second symbol of cell, read-out: IRAK-M binding inhibition IC50 value
T1 sequence (Q9Y616 1-596): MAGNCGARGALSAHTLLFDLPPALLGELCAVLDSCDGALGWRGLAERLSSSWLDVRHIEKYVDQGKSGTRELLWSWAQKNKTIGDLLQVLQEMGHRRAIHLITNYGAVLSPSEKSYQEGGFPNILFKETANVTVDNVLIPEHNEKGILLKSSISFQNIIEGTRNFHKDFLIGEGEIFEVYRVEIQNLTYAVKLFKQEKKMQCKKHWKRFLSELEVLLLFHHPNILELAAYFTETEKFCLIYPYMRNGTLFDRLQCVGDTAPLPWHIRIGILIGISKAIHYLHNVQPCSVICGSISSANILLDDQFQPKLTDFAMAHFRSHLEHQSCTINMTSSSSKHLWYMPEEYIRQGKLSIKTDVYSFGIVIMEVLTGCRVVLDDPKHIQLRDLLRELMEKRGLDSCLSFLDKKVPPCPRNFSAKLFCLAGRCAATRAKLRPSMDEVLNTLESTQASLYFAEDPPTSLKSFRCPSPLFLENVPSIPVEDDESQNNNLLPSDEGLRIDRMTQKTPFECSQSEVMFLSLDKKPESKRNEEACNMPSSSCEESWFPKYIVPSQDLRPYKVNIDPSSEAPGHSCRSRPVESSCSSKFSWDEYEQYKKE
In short: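 Readout given as % Ctrl, with DMSO as 100% and a control compound as 0%, scaling the test compound signal between them. Binding to human IRAK-M was assessed by KINOMEscan competition at the kinase active site.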

[1] = molecular target: T2, human XIAP_BIR3 domain purified protein (Homo sapiens, UniProt P98170); experiment: XIAP binding inhibitory activity (HTRF, b-Smac ligand); details: for IC50: second symbol of cell, read-out: XIAP binding inhibition IC50 value; for inhibition at 3 µM: concentration of the test compound 3 μM, first symbol of cell, read-out: XIAP binding inhibition rate
T2 construct: purchased R & D
Experimental: Human XIAP binding inhibitory activity was measured by the Homogeneous Time Resolved Fluorescence (HTRF) method with using commercially available human XIAP_BIR3 domain purified protein (R & D) and as a ligand a Smac N-terminal peptide (AVPIAQK (SEQ ID NO: 1)) (hereinafter referred to as “b-Smac”; Peptide Research Laboratories, Inc.) biotinylated at the C-terminus according to a conventional method.
The HTRF method will be described in detail below.
The test compound diluted with a reaction buffer (25 mM HEPES Buffer containing 100 mM NaCl, 0.1% BSA, and 0.1% triton X-100, pH 7.5) was added to a 384-well white shallow bottom plate (Greiner 784076) at 1 μL/well and flash centrifuged for 30 seconds. Subsequently, human XIAP_BIR3 domain purified protein was diluted with the reaction buffer to obtain a 90 nM sample diluent, and the resultant sample diluent was added to the above-mentioned white superficial plate at 4.5 μL/well and flash centrifuged for 30 seconds. Subsequently, b-Smac diluted to 90 nM with the reaction buffer was added to the above-mentioned white superficial plat at 4.5 μL/well and flash centrifuged for 30 seconds. A mixed solution of Anti-6 HIS-Cryptate (Eu^3+ Cryptate-conjugated mouse monoclonal antibody anti-6 Histidine; cisbio) and Streptavidin-XL^eat (Highgrade XL665-conjugated streptavidin; cisbio) both diluted 100-fold with HTRF detection buffer (cisbio) at a volume ratio of 1:1 was added to the above white superficial plate at 10 μL/well. After flash centrifuging the white shallow bottom plate for 30 seconds, the white shallow bottom plate was left at room temperature for 4 hours or more in the dark. The white superficial plate after being left was subjected to fluorescence intensity measurement (excitation wavelength: 320 nm, fluorescence wavelength: 665 nm and 615 nm) by EnVision (Perkin Elmer). The binding inhibition rate (%) was calculated based on the HTRF ratio in the presence of the test compound to the HTRF ratio in the absence of the test compound (fluorescence intensity at 665 nm/fluorescence intensity at 615 nm).
The XIAP binding inhibition rate (%) of test compounds was evaluated.

T2 sequence (P98170 252-356 limits assumed): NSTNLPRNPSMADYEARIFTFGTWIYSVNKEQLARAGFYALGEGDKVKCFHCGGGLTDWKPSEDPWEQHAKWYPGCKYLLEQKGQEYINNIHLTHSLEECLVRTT

remaining binding at 1 µM (IRAK-M) [%]	IC50 [1] [nM]	IC50 (IRAK-M) [nM]	inhibition at 3 µM [1] [%]	SMILES
25 to 50	300 to 3000	–	–	CN[C@@H](C)C(=O)N[C@H](C(=O)N1CCN(C(=O)c2ccc3c(c2)c(F)c(C)n3CCOCCOCCOc2cc(CN3CCC(Oc4ccnc5ccsc45)CC3)on2)CC1)C1CCCCC1 [Example 57, (S)-N-((S)-1-cyclohexyl-2-(4-(3-fluoro-2-methyl-1-(2-(2-(2-((5-((4-(thieno[3,2-b]pyridin-7-yloxy)piperidin-1-yl)methyl)isoxazol-3-yl)oxy)ethoxy)ethoxy)ethyl)-1H-indole-5-carbonyl)piperazin-1-yl)-2-oxoethyl)-2-(methylamino)propanamide]
–	–	100 to 300	> 25	CN[C@@H](C)C(=O)N[C@H](C(=O)N1CCN(C(=O)c2cc3cc(F)ccc3n2CC(=O)N2CCOC[C@@H]2COc2cc(CN3CCC(Oc4ccnc5ccsc45)CC3)on2)[C@@H](C)C1)C1CCCCC1 [Example 46, (S)-N-((S)-1-cyclohexyl-2-((S)-4-(5-fluoro-1-(2-oxo-2-((R)-3-(((5-((4-(thieno[3,2-b]pyridin-7-yloxy)piperidin-1-yl)methyl)isoxazol-3-yl)oxy)methyl)morpholino)ethyl)-1H-indole-2-carbonyl)-3-methylpiperazin-1-yl)-2-oxoethyl)-2-(methylamino)propanamide]
–	300 to 3000	30 to 100	–	CN[C@@H](C)C(=O)N[C@H](C(=O)N1CCN(C(=O)c2c(C(=O)NCCOCCOCCOc3cc(CN4CCC(Oc5ccnc6cc(C)sc56)CC4)on3)c3cc(F)c(F)cc3n2C)CC1)C1CCCCC1 [Example 8, 2-(4-((S)-2-cyclohexyl-2-((S)-2-(methylamino)propanamido)acetyl)piperazine-1-carbonyl)-5,6-difluoro-1-methyl-N-(2-(2-(2-((5-((4-((2-methylthieno[3,2-b]pyridin-7-yl)oxy)piperidin-1-yl)methyl)isoxazol-3-yl)oxy)ethoxy)ethoxy)ethyl)-1H-indole-3-carboxamide]
25 to 50	300 to 3000	–	–	CN[C@@H](C)C(=O)N[C@H](C(=O)N1CCN(C(=O)c2ccc3c(c2)cc(C)n3CCOCCOCCOc2cc(CN3CCC(Oc4ccnc5ccsc45)CC3)on2)CC1)C1CCCCC1 [Example 55, (S)-N-((S)-1-cyclohexyl-2-(4-(2-methyl-1-(2-(2-(2-((5-((4-(thieno[3,2-b]pyridin-7-yloxy)piperidin-1-yl)methyl)isoxazol-3-yl)oxy)ethoxy)ethoxy)ethyl)-1H-indole-5-carbonyl)piperazin-1-yl)-2-oxoethyl)-2-(methylamino)propanamide]
25 to 50	300 to 3000	–	–	CN[C@@H](C)C(=O)N[C@@H](Cn1cccn1)C(=O)N1CCN(C(=O)c2c(C(=O)N(C)CCOCCOCCOc3cc(CN4CCC(Oc5ccnc6ccsc56)CC4)on3)c3cc(F)ccc3n2C)CC1 [Example 15, 5-fluoro-N,1-dimethyl-2-(4-((S)-2-((S)-2-(methylamino)propanamido)-3-(1H-pyrazol-1-yl)propanoyl)piperazine-1-carbonyl)-N-(2-(2-(2-((5-((4-(thieno[3,2-b]pyridin-7-yloxy)piperidin-1-yl)methyl)isoxazol-3-yl)oxy)ethoxy)ethoxy)ethyl)-1H-indole-3-carboxamide]
25 to 50	< 300	–	–	CN[C@@H](C)C(=O)N[C@H](C(=O)N1CCN(C(=O)c2ccc3c(c2)cc(C)n3CCOCCOc2cc(CN3CCC(Oc4ccnc5ccsc45)CC3)on2)CC1)C1CCCCC1 [Example 54, (S)-N-((S)-1-cyclohexyl-2-(4-(2-methyl-1-(2-(2-((5-((4-(thieno[3,2-b]pyridin-7-yloxy)piperidin-1-yl)methyl)isoxazol-3-yl)oxy)ethoxy)ethyl)-1H-indole-5-carbonyl)piperazin-1-yl)-2-oxoethyl)-2-(methylamino)propanamide]

The remaining lines, values behind:

SMILES	remaining binding at 1 µM (IRAK-M) [%]	IC50 [1] [nM]	IC50 (IRAK-M) [nM]	inhibition at 3 µM [1] [%]
C[C@@H]1CN(CC(=O)N2CCN(C(=O)c3cc4cc(F)c(F)cc4n3C)C[C@H]2C)[C@@H](COCCOCCOCCOCCOc2cc(CN3CCC(Oc4ccnc5ccsc45)CC3)on2)CN1 [Example 19, 1-((R)-4-(5,6-difluoro-1-methyl-1H-indole-2-carbonyl)-2-methylpiperazin-1-yl)-2-((2R,5R)-5-methyl-2-(13-((5-((4-(thieno[3,2-b]pyridin-7-yloxy)piperidin-1-yl)methyl)isoxazol-3-yl)oxy)-2,5,8,11-tetraoxatridecyl)piperazin-1-yl)ethan-1-one]	–	300 to 3000	300 to 1000	–
CN[C@@H](C)C(=O)N[C@H](C(=O)N1CCC[C@H]1c1nc(C(=O)c2cccc(OCCOCCOc3cc(CN4CCC(Oc5ccnc6ccsc56)CC4)on3)c2)cs1)C1CCCCC1 [Example 58, (S)-N-((S)-1-cyclohexyl-2-oxo-2-((S)-2-(4-(3-(2-(2-((5-((4-(thieno[3,2-b]pyridin-7-yloxy)piperidin-1-yl)methyl)isoxazol-3-yl)oxy)ethoxy)ethoxy)benzoyl)thiazol-2-yl)pyrrolidin-1-yl)ethyl)-2-(methylamino)propanamide]	< 25	< 300	–	–
CN[C@@H](C)C(=O)N[C@H](C(=O)N1CCN(C(=O)c2c(C(=O)NCCOCCOCCOc3ccc(S(=O)(=O)N4CCC(Oc5ncnc6ccsc56)CC4)cc3)c3ccc(OC)cc3n2C)CC1)C1CCCCC1 [Example 2, 2-(4-((S)-2-Cyclohexyl-2-((S)-2-(methylamino)propanamido)acetyl)piperazine-1-carbonyl)-6-methoxy-1-methyl-N-(2-(2-(2-(4-((4-(thieno[3,2-d]pyrimidin-4-yloxy)piperidin-1-yl)sulfonyl)phenoxy)ethoxy)ethoxy)ethyl)-1H-indole-3-carboxamide]	–	300 to 3000	300 to 1000	–
C[C@@H]1CN(CC(=O)N2CCN(C(=O)c3cc4cc(F)c(F)cc4n3C)C[C@H]2C)[C@@H](COCCOCCOCCOc2cc(CN3CCC(Oc4ccnc5ccsc45)CC3)on2)CN1 [Example 17, 1-((R)-4-(5,6-Difluoro-1-methyl-1H-indole-2-carbonyl)-2-methylpiperazin-1-yl)-2-((2R,5R)-5-methyl-2-((2-(2-(2-((5-((4-(thieno[3,2-b]pyridin-7-yloxy)piperidin-1-yl)methyl)isoxazol-3-yl)oxy)ethoxy)ethoxy)ethoxy)methyl)piperazin-1-yl)ethan-1-one hydrochloride]	–	< 300	300 to 1000	–
CN[C@@H](C)C(=O)N[C@H](C(=O)N1CCN(C(=O)c2c(OCCOCCOCCOc3cc(CN4CCC(Oc5ccnc6ccsc56)CC4)on3)c3cc(F)c(F)cc3n2C)CC1)C1CCCCC1 [Example 21, (S)-N-((S)-1-Cyclohexyl-2-(4-(5,6-difluoro-1-methyl-3-(2-(2-(2-((5-((4-(thieno[3,2-b]pyridin-7-yloxy)piperidin-1-yl)methyl)isoxazol-3-yl)oxy)ethoxy)ethoxy)ethoxy)-1H-indole-2-carbonyl)piperazin-1-yl)-2-oxoethyl)-2-(methylamino)propanamide hydrochloride]	25 to 50	–	–	25 to 50
CN[C@@H](C)C(=O)N[C@H](C(=O)N1CCN(C(=O)c2cc3c(OCCOCCOCCOc4cc(CN5CCC(Oc6ccnc7ccsc67)CC5)on4)c(F)c(F)cc3n2C)CC1)C1CCCCC1 [Example 52, (S)-N-((S)-1-cyclohexyl-2-(4-(5,6-difluoro-1-methyl-4-(2-(2-(2-((5-((4-(thieno[3,2-b]pyridin-7-yloxy)piperidin-1-yl)methyl)isoxazol-3-yl)oxy)ethoxy)ethoxy)ethoxy)-1H-indole-2-carbonyl)piperazin-1-yl)-2-oxoethyl)-2-(methylamino)propanamide]	< 25	300 to 3000	–	–
